Measurements reported in patent publication EP0539170A1, “Benzodiazepine derivatives and their use as antagonists of cholecystokinin and/or gastrin receptors” (priority 1991, dated 1993).
Structures can show the parent of a compound that is named as a salt.

Biological target: T1, CCK Receptor (Pancreas) (Rattus norvegicus, UniProt P30551)
T1 construct: The whole pancreas was dissected free of fat tissue and was homogenized; from tissue; host or cells: rat pancreas membrane homogenate
T1 sequence (P30551 1-444): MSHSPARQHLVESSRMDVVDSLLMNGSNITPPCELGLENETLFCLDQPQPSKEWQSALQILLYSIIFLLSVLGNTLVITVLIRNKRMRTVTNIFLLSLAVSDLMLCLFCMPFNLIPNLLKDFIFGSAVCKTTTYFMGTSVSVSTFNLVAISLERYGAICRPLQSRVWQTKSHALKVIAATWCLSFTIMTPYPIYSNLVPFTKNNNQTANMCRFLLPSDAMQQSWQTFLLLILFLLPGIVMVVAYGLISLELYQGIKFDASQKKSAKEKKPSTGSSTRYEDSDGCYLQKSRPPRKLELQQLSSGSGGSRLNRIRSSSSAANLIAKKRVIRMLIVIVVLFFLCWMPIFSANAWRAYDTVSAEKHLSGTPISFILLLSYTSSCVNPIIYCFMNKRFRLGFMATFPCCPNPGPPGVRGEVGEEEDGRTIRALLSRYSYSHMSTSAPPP
Assay: CCK Receptor Binding (Pancreas), inhibition of specific 125I-CCK-8 binding
Set-up: species or system Sprague-Dawley rats
Details: rat whole pancreas membranes; 50 pM 125I-CCK-8; 25°C for 2 hours
Procedure: CCK-8 sulphated was radiolabelled with ¹²⁵I-Bolton Hunter reagent (2000 Ci/mmole). Receptor binding was performed according to Chang and Lotti (Proc. Natl. Acad. Sci. 83, 4923-4926, 1986) with minor modifications.
Male Sprague-Dawley rats (150-200g) were sacrificed by decapitation. The whole pancreas was dissected free of fat tissue and was homogenized in 25 volumes of ice-cold 10 mM N-2-hydroxyethyl-piperazine-N′-2-ethane sulphonic acid (HEPES) buffer with 0.1% soya bean trypsin inhibitor (pH 7.4 at 25°C) with a Kinematica Polytron. The homogenates were centrifuged at 47,800 g for 10 min. Pellets were resuspended in 10 volumes of binding assay buffer (20mM (HEPES)), 1mM ethylene glycol-bis-(β-aminoethylether-N,N′-tetraacetic acid) (EGTA), 5mM MgCl₂, 150 mM NaCl, bacitracin 0.25 mg/ml, soya bean trypsin inhibitor 0.1 mg/ml, and bovine serum albumin 2 mg/ml pH 6.5 at 25°C) using a Teflon (trademark) homogenizer, 15 strokes at 500 rpm. The homogenate was further diluted in binding assay buffer to give a final concentration of 0.5 mg original wet weight/1 ml buffer. […] All assays were run in duplicate. The reaction mixtures were incubated at 25°C for 2 hours and the reaction terminated by rapid filtration (Brandell 24 well cell harvester) over Whatman GF/C filters, washing 3 x 4 mls with ice-cold 100 Mm NaCl. The radioactivity on the filters was counted with a LKB gamma counter.
Drug displacement studies were performed with at least 10 concentrations of compounds of Formula I and the IC₅₀ values were determined by regression analysis IC₅₀ refers to the concentration of the compound required to inhibit 50% of specific binding of ¹²⁵I-CCK-8.

Cc1cccc(NC(=O)NC2N=C(N3CCCNCC3)c3ccccc3N(C)C2=O)c1 (racemic) [Example 16, N-[3(R,S)-2,3-Dihydro-5-(homopiperazin-1-yl)-1-methyl-2-oxo-1H-1,4-benzodiazepin-3-yl]-N′-[3-methylphenyl] urea] and Cc1cccc(NC(=O)NC2N=C(N3CCCCCC3)c3ccccc3N(C)C2=O)c1 (single isomer, unassigned; (-)) [Example 28, (-)-N-[2,3-Dihydro-5-(homopiperidin-1-yl)-1-methyl-2-oxo-1H-1,4-benzodiazepin-3-yl]-N′-[3-methylphenyl] urea] cannot be ordered by IC50: > 3000 nM for the first, > 3000 nM for the second.

First: CN(C)c1cccc(NC(=O)NC2N=C(N3CCCCCC3)c3ccccc3N(C)C2=O)c1 (racemic) [Example 49, N-[3(R,S)-2,3-Dihydro-5-(homopiperidin-1-yl)-1-methyl-2-oxo-1H-1,4-benzodiazepin-3-yl]-N′-[3-(dimethylamino)phenyl] urea]
Second: CCc1cccc(NC(=O)NC2N=C(N3CCCCCC3)c3ccccc3N(C)C2=O)c1 (single isomer, unassigned; (-)) [Example 67, (-)-N-[2,3-Dihydro-5-(homopiperidin-1-yl)-1-methyl-2-oxo-1H-1,4-benzodiazepin-3-yl]-N′-[3-ethylphenyl] urea hydrochloride]
The IC50 of the first is 5.4-fold lower: 57.2 nM for the first, 310 nM for the second.

Going from COc1cccc(NC(=O)NC2N=C(N3CCN(C)CC3)c3ccccc3N(C)C2=O)c1 (racemic) [Example 10, N-[3(R,S)-2,3-Dihydro-1-methyl-5-(4-methylpiperazin-1-yl)-2-oxo-1H-1,4-benzodiazepin-3-yl]-N#MIN#-[3-methoxyphenyl] urea] to CCCN1C(=O)C(NC(=O)Nc2cccc(N(C)C)c2)N=C(N2CCN(C)CC2)c2ccccc21 (single isomer, unassigned; (-)) [Example 41, (-)-N-[2,3-Dihydro-5-(4-methylpiperazin-1-yl)-2-oxo-1-propyl-1H-1,4-benzodiazepin-3-yl]-N′-[3-(dimethylamino)phenyl] urea], the IC50 rises from 900 nM to > 3000 nM. The first is the more potent here.

First: CN1C(=O)C(NC(=O)Nc2ccc(C(C)(C)C)cc2)N=C(N2CCCCCC2)c2ccccc21 (racemic) [Example 50, N-[3(R,S)-2,3-Dihydro-5-(homopiperidin-1-yl)-1-methyl-2-oxo-1H-1,4-benzodiazepin-3-yl]-N′-[4-t-butylphenyl] urea]
Second: Cc1cccc(NC(=O)NC2N=C(N3CCCCCCC3)c3ccccc3N(C)C2=O)c1 (racemic) [Example 43, N-[3(R,S)-2,3-Dihydro-5-(heptamethyleneimin-1-yl)-1-methyl-2-oxo-1H-1,4-benzodiazepin-3-yl]-N#MIN#-[3-methylphenyl] urea]
The IC50 of the first is 44-fold higher: 815 nM for the first, 18.4 nM for the second. The second is the more potent here.

First: CCN1C(=O)C(NC(=O)Nc2cccc(C)c2)N=C(N2CCCCCC2)c2ccccc21 (racemic) [Example 64, N-[3(R,S)-2,3-Dihydro-1-ethyl-5-(homopiperidin-1-yl)-2-oxo-1H-1,4-benzodiazepin-3-yl]-N′-[3-methylphenyl] urea]
Second: CCCN1C(=O)C(NC(=O)Nc2cccc(C)c2)N=C(N2CCSCC2)c2ccccc21 (racemic) [Example 55, N-[3(R,S)-2,3-Dihydro-2-oxo-1-propyl-5-(thiomorpholin-4-yl)-1H-1,4-benzodiazepin-3-yl]-N′-[3-methylphenyl] urea]
The IC50 of the first is 94-fold lower: 3.59 nM for the first, 337 nM for the second.

CN1C(=O)C(NC(=O)Nc2ccc3c(c2)CCC3)N=C(N2CCCCCC2)c2ccccc21 (single isomer, unassigned; (-)) [Example 58, (-)-N-[2,3-Dihydro-5-(homopiperidin-1-yl)-1-methyl-2-oxo-1H-1,4-benzodiazepin-3-yl]-N′-[5-indanyl] urea hydrochloride] and CCc1cccc(NC(=O)NC2N=C(N3CCN(C)CC3)c3ccccc3N(CC(C)C)C2=O)c1 (racemic) [Example 23, N-[3(R,S)-2,3-Dihydro-5-(4-methylpiperazin-1-yl)-1-(2-methylpropyl)-2-oxo-1H-1,4-benzodiazepin-3-yl]-N′-[3-ethylphenyl] urea] are within 1.5-fold of each other in IC50: 2430 nM for the first, 2400 nM for the second.
